Results on 38 molecules are retold here after patent US6815440B2, “Cyclic and heterocyclic N-substituted α-iminohydroxamic and -carboxylic acids” (Aventis Pharma Deutschland GmbH, priority 1995, dated 2004).

Like-named read-outs stand apart in the source and are kept apart here.

Series [1] addresses T1, catalytic domain of human stromelysine (Homo sapiens, UniProt P08254).
T1 construct: enzymatic activity of the catalytic domains of human stomelysine and of neutrophil collagenase; made in house
Briefly: Enzyme inhibition, catalytic domain of human stromelysine (fluorogenic substrate). The format is biochemical. The following applies: read-out: Stromelysine IC 50. The protocol: (§1) Preparation and determination of the enzymatic activity of the catalytic domains of human stomelysine and of neutrophil collagenase.
(§2) The two enzymes were prepared according to Ye et al., (Biochemistry 31 (1992) 11231-5). To measure the enzyme activity or enzyme inhibitor action, 70 μl of buffer solution and 10 μl of enzyme solution are incubated for 15 minutes with 10 μl of a 10% strength (v/v) aqueous dimethyl sulfoxide solution, which optionally contains the enzyme inhibitor. After addition of 10 μl of a 10% strength (v/v) aqueous dimethyl sulfoxide solution which contains 1 mmol/l of the substrate, the enzyme reaction is monitored by fluorescence spectroscopy (328 nm (ex)/393 nm(em)). The enzyme activity is shown as extinction increase/minute. […] The buffer solution contains 0.05% of Brij (Sigma, Deisenhofen, Germany) and also 0.1 mol/l of tris/HCl, 0.1 mol/l of NaCl, 0.01 mol/l of CaCl2 (pH=7.5) for the determination of the hydroxamic acids up to and including Example 33, or, for the determination of the carboxylic acids from Example 34, 0.1 mol/l of piperazine-N,N′-bis[2-ethanesulfonic acid] pH=6.5.
(§3) The enzyme solution contains 5 μg/ml of one of the enzyme domains prepared according to Ye et al. The substrate solution contains 1 mmol/l of the fluorogenic substrate (7-methoxycoumarin-4-yl)acetyl-Pro-Leu-Gly-Leu-3-(2′,4′-dinitrophenyl)-L-2,3-diaminopropionyl-Ala-Arg-NH2 (Bachem, Heidelberg, Germany).

Series [2] has as its target T2, catalytic domain of neutrophil collagenase (Homo sapiens, UniProt P22894).
T2 construct: enzymatic activity of the catalytic domains of human stomelysine and of neutrophil collagenase; made in house
Briefly: Enzyme inhibition, catalytic domain of neutrophil collagenase (fluorogenic substrate). The class given is biochemical. The following applies: read-out: Neutrophil collagenase IC 50. On the procedure:
as §1, §2, §3

Where [3] appears, read: carboxylic acids from Example 34, piperazine-N,N'-bis[2-ethanesulfonic acid] buffer pH=6.5.
[4] abbreviates: hydroxamic acids up to and including Example 33, tris/HCl buffer pH=7.5.

T1 sequence (P08254 100-272 limits assumed): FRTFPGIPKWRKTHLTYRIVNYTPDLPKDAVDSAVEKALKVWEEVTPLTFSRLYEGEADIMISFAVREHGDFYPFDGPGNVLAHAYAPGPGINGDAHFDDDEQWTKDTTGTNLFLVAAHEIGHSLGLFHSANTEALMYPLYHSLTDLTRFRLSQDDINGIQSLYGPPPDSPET
T2 sequence (P22894 100-262 limits assumed): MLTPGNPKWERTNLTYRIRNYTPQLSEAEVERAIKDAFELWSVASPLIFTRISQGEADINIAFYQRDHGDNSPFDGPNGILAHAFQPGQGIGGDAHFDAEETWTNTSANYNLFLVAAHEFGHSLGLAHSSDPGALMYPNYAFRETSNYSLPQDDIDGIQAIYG

The term melting point denotes the temperature, or range, at which the solid turns liquid. For the molecule `O=C(O)[C@H]1Cc2ccccc2CN1S(=O)(=O)c1ccc(Oc2ccccc2)cc1` [41 (13b), R-2-(4-phenoxybenzenesulfonyl)-1,2,3,4-tetrahydroisoquinoline-3-carboxylic acid], the melting point worked out at 147 °C. Also, in series [1] (setting [3]), the IC50 came out at 200 nM. For the same molecule, the IC50 in series [2] (setting [3]) was 9 nM.

Take `O=C(NO)C1Cc2ccccc2CN1S(=O)(=O)c1ccccc1` (centres unmarked) [Example 1]: the IC50 in series [1] (setting [4]) was determined as 300 nM.

As to `O=C(NO)[C@H]1Cc2ccccc2CN1S(=O)(=O)c1ccc(-c2ccc(Cl)cc2)cc1` [Example 3], the IC50 in series [1] (setting [4]) is 30 nM; in series [2] (setting [4]), 2 nM.

For the molecule `CC(=O)Nc1ccc(S(=O)(=O)N2Cc3ccccc3CC2C(=O)NO)cc1` (centres unmarked) [Example 4], the IC50 in series [1] (setting [4]) is 700 nM; in series [2] (setting [4]) it was 100 nM.

As for `CCOC(=O)Nc1cccc(S(=O)(=O)N2Cc3ccccc3CC2C(=O)NO)c1` (centres unmarked) [Example 5], the IC50 in series [1] (setting [4]) is 6000 nM.

Regarding `CCOC(=O)Nc1ccc(S(=O)(=O)N2Cc3ccccc3CC2C(=O)NO)cc1` (centres unmarked) [Example 6], the IC50 is 500 nM in series [1] (setting [4]) and 30 nM in series [2] (setting [4]).

Regarding `COc1ccc(CC(=O)Nc2cccc(S(=O)(=O)N3Cc4ccccc4CC3C(=O)NO)c2)cc1` (centres unmarked) [Example 8], the IC50 in series [1] (setting [4]) was 3000 nM; in series [2] (setting [4]), 200 nM.

`O=C(NO)[C@H]1Cc2ccccc2CN1S(=O)(=O)C1=CC2=CC=CCC2C=C1` (some centres unmarked) [Example 11]: the IC50 in series [1] (setting [4]) worked out at 400 nM; in series [2] (setting [4]) it was 70 nM.

For the molecule `CN(C)c1cccc2c(S(=O)(=O)N3Cc4ccccc4C[C@@H]3C(=O)NO)cccc12` [Example 12], the IC50 in series [1] (setting [4]) worked out at 400 nM; in series [2] (setting [4]) it was 200 nM.

For `O=C(NO)[C@H]1Cc2ccccc2CN1S(=O)(=O)c1ccc2oc3ccccc3c2c1` [Example 15], the IC50 in series [1] (setting [4]) came out at 100 nM; in series [2] (setting [4]), 10 nM.

Consider `O=C(NO)C1Cc2ccccc2CN1S(=O)(=O)CCc1ccccc1` (centres unmarked) [Example 17], for which the IC50 in series [1] (setting [4]) was found to be 100 nM.

Consider `O=C(NO)C1Cc2ccccc2CN1S(=O)(=O)c1ccc(C(O)c2ccccc2)cc1` (centres unmarked) [Example 19], for which the IC50 was determined as 2000 nM in series [1] (setting [4]) and 300 nM in series [2] (setting [4]).

Take `COc1ccc(S(=O)(=O)Oc2ccc3c(c2)CN(S(=O)(=O)c2ccc(OC)cc2)[C@@H](C(=O)NO)C3)cc1` [Example 22]: the IC50 came to 30 nM in series [1] (setting [4]) and 8 nM in series [2] (setting [4]).

On to `COc1ccc(S(=O)(=O)N2Cc3cc([N+](=O)[O-])ccc3CC2C(=O)NO)cc1` (centres unmarked) [Example 23], for which the IC50 is 80 nM in series [1] (setting [4]) and 8 nM in series [2] (setting [4]).

For the molecule `COc1ccc(S(=O)(=O)N2Cc3cc4c(cc3CC2C(=O)NO)OCO4)cc1` (centres unmarked) [Example 24, 2-(4-Methoxybenzenesulfonyl)-6,7-methylenedioxy-1,2,3,4-tetrahydroisoquinoline-3-hydroxamic acid], the melting point stood at 166 °C. Moreover, the IC50 in series [1] (setting [4]) stood at 60 nM. The IC50 in series [2] (setting [4]) came to 20 nM.

For `COc1ccc(S(=O)(=O)N2Cc3c(cc(OC)c(OC)c3OC)CC2C(=O)NO)cc1` (centres unmarked) [Example 25, 2-(4-Methoxybenzenesulfonyl)-6,7,8-trimethoxy-1,2,3,4-tetrahydroisoquinoline-3-hydroxamic acid], the results for the IC50 in series [1] (setting [4]) and in series [2] (setting [4]) were 400 nM and 300 nM, respectively.

Consider `O=C(NO)C1Cc2ccccc2CN1S(=O)(=O)N1CCOCC1` (centres unmarked) [Example 26, 2-(Morpholinosulfonyl)-1,2,3,4-tetrahydroisoquinoline-3-hydroxamic acid], for which the values for the IC50 in series [1] (setting [4]) and in series [2] (setting [4]) were 6000 nM and 300 nM, respectively.

For `COc1ccc(S(=O)(=O)N2CCc3cc4c(cc3C2C(=O)NO)CCC4)cc1` (centres unmarked) [Example 27], the IC50 in series [1] (setting [4]) turned out to be 30 nM; in series [2] (setting [4]), 4 nM.

`COc1ccc(S(=O)(=O)N2c3ccccc3CC2C(=O)NO)cc1` (centres unmarked) [Example 28, 1-(4-Methoxybenzenesulfonyl)indoline-2-hydroxamic acid] yielded a melting point of 142 °C. Further, the IC50 in series [1] (setting [4]) was 2000 nM. In addition, the IC50 in series [2] (setting [4]) was determined as 700 nM.

On to `COc1ccc(S(=O)(=O)N2Cc3[nH]c4ccccc4c3C[C@@H]2C(=O)NO)cc1` [Example 31, R-2-(4-methoxybenzenesulfonyl)-1,2,3,4-tetrahydro-9H-pyrido-(3,4-b)-indole-3-hydroxamic acid], for which the IC50 in series [1] (setting [4]) is 20 nM; in series [2] (setting [4]), 3 nM.

`O=C(NO)[C@H]1Cc2c([nH]c3ccccc23)CN1S(=O)(=O)c1ccc(Oc2ccccc2)cc1` [Example 32, R-2-(4-phenoxybenzenesulfonyl)-1,2,3,4-tetrahydro-9H-pyrido(3,4-b)-indole-3-hydroxamic acid]: the melting point lay within 110 to 111 °C. Besides, the IC50 in series [1] (setting [4]) stood at 60 nM.

With `O=C(NO)[C@H]1Cc2c([nH]c3ccccc23)CN1S(=O)(=O)c1ccc(N2CCOCC2)cc1` [Example 33, R-2-(4-morpholinobenzenesulfonyl)-1,2,3,4-tetrahydro-9H-pyrido(3,4-b)-indole-3-hydroxamic acid], the melting point was 125 °C (dec.). Moreover, the IC50 in series [1] (setting [4]) turned out to be 300 nM. Moreover, in series [2] (setting [4]), the IC50 came out at 70 nM.

Turning to `O=C(O)[C@H]1Cc2ccccc2CN1S(=O)(=O)c1ccc(-c2ccccc2)cc1` [Example 34], the melting point stood at 205 °C. Besides, the IC50 in series [1] (setting [3]) worked out at 500 nM. In addition, the IC50 in series [2] (setting [3]) stood at 10 nM.

`O=C(O)[C@H]1Cc2ccccc2CN1S(=O)(=O)c1ccc(-c2ccc(Cl)cc2)cc1` [Example 35] displayed a melting point of 207 to 209 °C. In series [1] (setting [3]), the IC50 came out at 100 nM. Moreover, in series [2] (setting [3]), the IC50 stood at 5 nM.

As for `O=C(O)[C@@H]1Cc2ccccc2CN1S(=O)(=O)c1ccc(-c2ccc(Cl)cc2)cc1` [Example 36], in series [2] (setting [3]), the IC50 stood at 3000 nM.

With `CN(C)c1ccc(-c2ccc(S(=O)(=O)N3Cc4ccccc4C[C@@H]3C(=O)O)cc2)cc1.Cl` [Example 39], the melting point lay within 122 to 135 °C. Further, the IC50 in series [1] (setting [3]) came out at 100 nM. Also, the IC50 in series [2] (setting [3]) is 1 nM.

On to `O=C(O)[C@H]1Cc2ccccc2CN1S(=O)(=O)c1ccc(Oc2ccc(Cl)cc2)cc1` [Example 42, R-2-[4-(4-chlorophenoxy)benzenesulfonyl]-1,2,3,4-tetrahydroisoquinoline-3-carboxylic acid], for which the melting point fell in the range of 167 to 168 °C. For the same molecule, the IC50 in series [1] (setting [3]) was determined as 500 nM. The IC50 in series [2] (setting [3]) was 20 nM.

Take `O=C(O)[C@H]1Cc2ccccc2CN1S(=O)(=O)c1ccc(Sc2ccccc2)cc1` [Example 43]: the IC50 was determined as 20000 nM in series [1] (setting [3]) and 200 nM in series [2] (setting [3]).

For `O=C(O)[C@H]1Cc2ccccc2CN1S(=O)(=O)c1ccc(OCc2ccc(F)cc2)cc1` [Example 44], the IC50 in series [1] (setting [3]) worked out at 200 nM; in series [2] (setting [3]), 30 nM.

In the case of `O=C(c1ccccc1)c1ccc(S(=O)(=O)N2Cc3ccccc3C[C@@H]2C(=O)O)cc1` [Example 45], the IC50 in series [1] (setting [3]) was 3000 nM; in series [2] (setting [3]), 300 nM.

As to `O=C(O)[C@H]1Cc2ccccc2CN1S(=O)(=O)c1ccc2oc3ccccc3c2c1` [Example 46], the melting point fell in the range of 218 to 219 °C. For the same molecule, the IC50 in series [1] (setting [3]) stood at 3000 nM. In addition, the IC50 in series [2] (setting [3]) is 300 nM.

In turn, `O=C(O)[C@H]1Cc2ccccc2CN1S(=O)(=O)c1ccc(-c2nc3ccccc3o2)cc1` [Example 47] yielded a melting point of 211 to 213 °C.

For `O=C(O)[C@H]1Cc2ccc([N+](=O)[O-])cc2CN1S(=O)(=O)c1ccc(-c2ccc(Cl)cc2)cc1` [Example 50], the IC50 worked out at 600 nM in series [1] (setting [3]) and 30 nM in series [2] (setting [3]).

In the case of `O=C(O)[C@H]1Cc2cc([N+](=O)[O-])ccc2CN1S(=O)(=O)c1ccc(-c2ccc(Cl)cc2)cc1` [Example 51], the IC50 is 500 nM in series [1] (setting [3]) and 20 nM in series [2] (setting [3]).

In the case of `O=C(O)[C@H]1Cc2ccc([N+](=O)[O-])cc2CN1S(=O)(=O)c1ccc(-c2ccc(F)cc2)cc1` [Example 52], the figures for the IC50 in series [1] (setting [3]) and in series [2] (setting [3]) were 1000 nM and 40 nM, respectively.

`O=C(O)[C@H]1Cc2cc([N+](=O)[O-])ccc2CN1S(=O)(=O)c1ccc(-c2ccc(F)cc2)cc1` [Example 53]: the IC50 in series [1] (setting [3]) amounted to 500 nM; in series [2] (setting [3]), 20 nM.

Molecule `O=C(O)[C@H]1Cc2cc3c(cc2CN1S(=O)(=O)c1ccc(Oc2ccccc2)cc1)OCO3` [Example 54] showed a melting point of 226 to 228 °C.

In turn, `O=C(O)[C@H]1Cc2c([nH]c3ccccc23)CN1S(=O)(=O)c1ccc(Oc2ccccc2)cc1` [Example 57] registered a melting point of 115 °C. For the same molecule, in series [1] (setting [3]), the IC50 amounted to 2000 nM. For the same molecule, the IC50 in series [2] (setting [3]) worked out at 100 nM.
